Measurements as given in US20260256808A1, “Istaroxime-Containing Intravenous Formulation for the Treatment of Pre-Cardiogenic Shock and Cardiogenic Shock” (Windtree Therapeutics, Inc., priority 2022, published 2026).
“Also recorded” adds a separate entry of the source.

Assays:
patients with ADHF = conditions: cited from earlier work
[1] = test system: patients with AHF and exhibiting pre-cardiogenic shock (SCAI stage B); assay: SEISMIC: randomized, double-blind, placebo-controlled study of 24 h istaroxime infusion in pre-cardiogenic shock; assay type: in vivo, human
Experimental: Pre-CS was defined as defined as systolic blood pressure (SBP)<90 mmHg without hypoperfusion, venous lactate >2 mmol/L and/or mechanical or inotropic support. The inclusion criteria included AHF-related SCAI stage B pre-CS, 18-85 years of age, an ongoing hospitalization for AHF, left ventricular ejection fraction <40%, persistent hypotension (SBP between 75 and 90 mmHg), heart rate of 75-150 bpm and no need at time of screening or planned use for 6 h thereafter of mechanical support or intravenous therapy to increase BR According to the stage B SCAI classification, patients with clinical signs of peripheral hypoperfusion, venous lactate >2 mmol/L and/or on mechanical support or treatment with intravenous vasodilators, inotropes or vasopressors were excluded. Other exclusion criteria were concomitant or planned treatment with oral digoxin (could be randomized if the plasma concentration of digoxin at screening was <0.5 ng/ml); acute coronary syndrome or stroke within the past 3 months; coronary artery bypass graft or percutaneous coronary intervention within the past month or planned in the next month; life-threatening ventricular arrhythmia or implantable cardioverter defibrillator shock within the past month; sustained ventricular tachycardia in the last 3 months or uncontrolled arrhythmia; fever >38° C.; estimated glomerular filtration rate (eGFR)[…]; serum potassium >5.3 or <3.5 mmol/L; stroke or transient ischaemic accident within the past 3 months; and acute respiratory distress syndrome.
The patients were randomized centrally, using an interactive response technology, to receive istaroxime or placebo at a ratio of 1:1. Study medication was supplied in uniquely-numbered kits containing identical vials of lyophilized powder (istaroxime plus lactose), reconstituted by adding 5 ml saline to the vial. Istaroxime was administered as a continuous infusion 1.0 μg/kg/min for 24 h. The infusion rate could be decreased at the discretion of the investigator based on the development of tolerability issues (such as nausea), significant bradycardia, or greater than desired BP elevation.
The primary efficacy endpoint was the area under the curve representing the change in SBP from baseline, start of study drug infusion, through 6 h (SBP AUC). The secondary endpoints included SBP AUC through 24 h; changes from baseline in SBP (particularly at 6 and 24 h), diastolic blood pressure (DBP) and mean arterial pressure (MAP); changes from baseline in heart rate (HR); treatment failure score (based on death, circulatory, respiratory, or renal mechanical support or intravenous inotrope or vasopressor treatment, and changes in SBP); treatment failure defined as death or need for circulatory, respiratory, or renal mechanical support or intravenous inotrope or vasopressor treatment; increase from baseline in SBP >5% and/or >10 mmHg; changes in quality of life measured by the EuroQol 5 Dimension 5 Level (EQ-5D-5L); change from baseline to 24 h in echocardiography parameters; changes in troponin and N-terminal pro-B-type natriuretic peptide (NT-proBNP); hospital readmission for heart failure and for any cause by day 30; in-hospital worsening heart failure to day 5; and length of hospital stay. In-hospital worsening heart failure was defined as worsening signs and/or symptoms of heart failure since the previous assessment that required an intensification of intravenous therapy for heart failure or mechanical ventilatory, renal, or circulatory support. The safety endpoints were assessed throughout the study and included the incidence of adverse events; changes in vital signs and in 12-lead electrocardiogram (ECG) parameters; incidence of clinically or haemodynamically significant episodes of supraventricular or ventricular arrhythmias detected by continuous ECG monitoring; standard laboratory parameters; renal function measures; cardiac troponin I or T; and mortality through day 30. […]

[2] = test system: patients hospitalized with ADHF and reduced LV systolic function; conditions: 0.5-1.0-1.5 μg/kg/min, cited from earlier work
[3] = 24 h Post-Treatment, adjusted least square mean change
[4] = 24 h Post-Treatment, adjusted least square mean change, listed as istaroxime
[5] = 24 h Post-Treatment, mean, n = 29

C[C@]12CCC(=NOCCN)C[C@@H]1C(=O)C[C@@H]1[C@@H]2CC[C@]2(C)C(=O)CC[C@@H]12 [Istaroxime]
E/Ea ratio (patients with ADHF; 0.5 μg/kg/min and 1.0 μg/kg/min infused for up to 24 hours, vs placebo): an improvement in both treatment groups | diastolic function parameters (patients with ADHF; measured after 6 hours of infusion): significant improvements for most of the diastolic function parameters | adjusted SBP increase at 6 h ([1]; 6 h after infusion start, (SE), p=0.045 vs placebo): 12.3 (SE 1.71) mmHg | Mitral Regurgitation Mild, number of patients ([1]; 24 h Post Treatment): 11 | Mitral Regurgitation Mild, share of patients ([1]; 24 h Post Treatment): (39%) | Mitral Regurgitation Moderate, number of patients ([1]; 24 h Post Treatment): 16 | Mitral Regurgitation Moderate, share of patients ([1]; 24 h Post Treatment): (57%) | Mitral Regurgitation None, number of patients ([1]; 24 h Post Treatment): 1 | Mitral Regurgitation None, share of patients ([1]; 24 h Post Treatment): (4%) | Cardiac Index, Change from Baseline [1, 3]: 0.156 L/min/m^2 | Cardiac Output, Change from Baseline [1, 3]: 0.23 L/min | E/A Ratio, Change from Baseline [1, 3]: −0.380 | E/Ea Ratio, Change from Baseline [1, 3]: −0.615 | Ejection Time, Change from Baseline [1, 3]: -2.807 ms | Inferior Vena Cava Diameter, Change from Baseline [1, 3]: −2.503 mm | Left Atrial Area, Change from Baseline [1, 3]: −1.817 cm^2 | Left Atrial Volume, Change from Baseline [1, 3]: -7.440 mL | Left Ventricular Ejection Fraction, Change from Baseline [1, 3]: 2.678% | Left Ventricular End-Diastolic Diameter, Change from Baseline [1, 3]: −0.668 mm | Left Ventricular End-Diastolic Volume, Change from Baseline [1, 3]: -6.501 mL | Left Ventricular End-Systolic Diameter, Change from Baseline [1, 3]: −0.719 mm | Left Ventricular End-Systolic Volume, Change from Baseline [1, 3]: -8.692 mL | Pulmonary Artery Systolic Pressure, Change from Baseline [1, 3]: −7.084 mmHg | Stroke Volume Index, Change from Baseline [1, 3]: 4.001 ml/m^2 | Tricuspid Annular Plane Systolic Excursion, Change from Baseline [1, 3]: 0.0860 mm | Cardiac Index, Change from Baseline [1, 4]: 0.16 ± 0.1 L/min/m^2 | Left Atrial Area, Change from Baseline [1, 4]: −1.8+0.5 cm^2 | Left Ventricular End-Diastolic Volume, Change from Baseline [1, 4]: −6.5+4.9 ml | Left Ventricular End-Systolic Volume, Change from Baseline [1, 4]: −8.7+4.2 ml | Cardiac Index, Observed [1, 5]: 2.1 L/min/m^2 | Cardiac Output, Observed [1, 5]: 3.93 L/min | E/A Ratio, Observed [1, 5]: 1.5 | E/Ea Ratio, Observed [1, 5]: 12.2 | Ejection Time, Observed [1, 5]: 219.0 ms | Inferior Vena Cava Diameter, Observed [1, 5]: 19.5 mm | Left Atrial Area, Observed [1, 5]: 27.1 cm^2 | Left Atrial Volume, Observed [1, 5]: 95.2 mL | Left Ventricular Ejection Fraction, Observed [1, 5]: 29.5% | Left Ventricular End-Diastolic Diameter, Observed [1, 5]: 61.3 mm | Left Ventricular End-Diastolic Volume, Observed [1, 5]: 194.3 mL | Left Ventricular End-Systolic Diameter, Observed [1, 5]: 52.8 mm | Left Ventricular End-Systolic Volume, Observed [1, 5]: 135.7 mL | Pulmonary Artery Systolic Pressure, Observed [1, 5]: 36.8 mmHg | Stroke Volume Index, Observed [1, 5]: 28.3 ml/m^2 | Tricuspid Annular Plane Systolic Excursion, Observed [1, 5]: 15.9 mm | adjusted change in SBP at 24 h ([1]; 24 h after infusion start, (SE), p=0.543 vs placebo): 17.1 (SE 2.36) mmHg | change in DBP ([1]; FIG. 3C, up to 96 h, persisting beyond the 24 h of drug administration): increases were noted | change in MAP ([1]; FIG. 4A, persisting beyond the 24 h of drug administration): increases were noted | adjusted mean 6 h AUC of change in SBP from baseline ([1]; infusion start to hour 6, istaroxime iv infusion 24 h, adjusted mean (SE), p=0.017 vs placebo): 53.1 (SE 6.88) mmHg·h | adjusted mean 24 h SBP AUC ([1]; infusion start to hour 24, adjusted mean (SE), p=0.025 vs placebo): 291.2 (SE 27.5) mmHg·h | increase of adjusted mean 6 h SBP AUC versus placebo ([1]; istaroxime 53.1 vs placebo 30.9 mmHg·h): 72% | increase of adjusted mean 24 h SBP AUC versus placebo ([1]; istaroxime 291.2 vs placebo 208.7 mmHg·h): 40% | effect on heart rate / pulse ([1]; patients with pre-cardiogenic shock): without effects on pulse; also recorded: not by increasing the heart rate | HR during infusion ([2]; 6-hour infusion): tended to decrease | SBP during infusion ([2]; 6-hour infusion): slightly increased in a dose-dependent manner | change from baseline in PCWP ([2]; after 6 h infusion, vs placebo, plateaued after 3 hours): dose-dependent improvements in PCWP
